From PubChem BioAssay AID1963975 (Molecular Pharmacology Branch, DTP, NCI, 2024)

Test system: 624824-186-R-J2-PDC multicell spheroids, viability
Test: Anticancer human tumor 624824-186-R-J2-PDC patient-derived colon adenocarcinoma cell line growth inhibition [PI3K]
Details: for IC50: curve of first compound; for viability, T/C: stronger effect = lower value
How it was run: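 We assembled tumor spheroids that included a stromal compartment of HUVEC and MSCs, then exposed them to targeted agents alone and together with PI3K pathway inhibitors. Concentration series descended by half-log from clinically achievable Cmax levels. Viability served as the endpoint.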

[1] = second compound 0.00316 µM, first compound 0.0316 µM
[2] = second compound 0.00316 µM, first compound 0.1 µM
[3] = second compound 0.00316 µM, first compound 0.316 µM
[4] = second compound 0.00316 µM, first compound 1 µM
[5] = second compound 0.00316 µM, first compound 3.16 µM
[6] = second compound 0.00316 µM, first compound 10 µM
[7] = second compound 0.01 µM, first compound 0.0316 µM
[8] = second compound 0.01 µM, first compound 0.1 µM
[9] = second compound 0.01 µM, first compound 0.316 µM
[10] = second compound 0.01 µM, first compound 1 µM
[11] = second compound 0.01 µM, first compound 3.16 µM
[12] = second compound 0.01 µM, first compound 10 µM
[13] = second compound 0.0316 µM, first compound 0.0316 µM
[14] = second compound 0.0316 µM, first compound 0.1 µM
[15] = second compound 0.0316 µM, first compound 0.316 µM
[16] = second compound 0.0316 µM, first compound 1 µM
[17] = second compound 0.0316 µM, first compound 3.16 µM
[18] = second compound 0.0316 µM, first compound 10 µM
[19] = second compound 0.1 µM, first compound 0.0316 µM
[20] = second compound 0.1 µM, first compound 0.1 µM
[21] = second compound 0.1 µM, first compound 0.316 µM
[22] = second compound 0.1 µM, first compound 1 µM
[23] = second compound 0.1 µM, first compound 3.16 µM
[24] = second compound 0.1 µM, first compound 10 µM
[25] = second compound 0.316 µM, first compound 0.0316 µM
[26] = second compound 0.316 µM, first compound 0.1 µM
[27] = second compound 0.316 µM, first compound 0.316 µM
[28] = second compound 0.316 µM, first compound 1 µM
[29] = second compound 0.316 µM, first compound 3.16 µM
[30] = second compound 0.316 µM, first compound 10 µM
[31] = second compound 1 µM, first compound 0.0316 µM
[32] = second compound 1 µM, first compound 0.1 µM
[33] = second compound 1 µM, first compound 0.316 µM
[34] = second compound 1 µM, first compound 1 µM
[35] = second compound 1 µM, first compound 3.16 µM
[36] = second compound 1 µM, first compound 10 µM
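Further: spheroids exposed to agents for 7 days before viability read.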
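Wherever viability, T/C is given: 100% = DMSO vehicle treated spheroids.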

Work on `C=CC(=O)N1CCN(c2nc(=O)n(-c3c(C)ccnc3C(C)C)c3nc(-c4c(O)cccc4F)c(F)cc23)C(C)C1` (centres undefined) + COc1c(OCCCN2CCOCC2)ccc2c3n(c(=NC(=O)c4cnc(N)nc4)nc12)CCN3 yielded an IC50 (second compound 0.00316 µM) of over 10 µM, an IC50 (second compound 0.01 µM) of over 10 µM and an IC50 (second compound 0.0316 µM) of over 10 µM. For the same compound, the IC50 (second compound 0.1 µM) was over 10 µM, the IC50 (second compound 0.316 µM) was over 10 µM and the IC50 (second compound 1 µM) was over 10 µM. It also gave a viability, T/C [1] of 96.5%, a viability, T/C [2] of 109% and a viability, T/C [3] of 95.6%. The viability, T/C [4] was 77.9%, the viability, T/C [5] was 88.7% and the viability, T/C [6] was 80.8%. For the same compound, the viability, T/C [7] was 102%, the viability, T/C [8] was 98.4% and the viability, T/C [9] was 101%. The viability, T/C [10] was 75.3%, the viability, T/C [11] was 93% and the viability, T/C [12] was 88.4%. The viability, T/C [13] was 88.4%, the viability, T/C [14] was 86.5% and the viability, T/C [15] was 97.3%. For the same compound, the viability, T/C [16] was 75.1%, the viability, T/C [17] was 89.5% and the viability, T/C [18] was 81.7%. The viability, T/C [19] was 80.4%, the viability, T/C [20] was 61.1% and the viability, T/C [21] was 80.1%. For the same compound, the viability, T/C [22] was 67.9%, the viability, T/C [23] was 69% and the viability, T/C [24] was 69%. For the same compound, the viability, T/C [25] was 62.6%, the viability, T/C [26] was 59.3% and the viability, T/C [27] was 59.5%. The viability, T/C [28] was 61.6%, the viability, T/C [29] was 69.8% and the viability, T/C [30] was 61%. For the same compound, the viability, T/C [31] was 59.1%, the viability, T/C [32] was 53% and the viability, T/C [33] was 65.5%. It also gave a viability, T/C [34] of 58.1%, a viability, T/C [35] of 64.5% and a viability, T/C [36] of 60.5%.

`CC(C)NCC(C(=O)N1CCN(c2ncnc3c2C(C)CC3O)CC1)c1ccc(Cl)cc1` (centres undefined) + COc1c(OCCCN2CCOCC2)ccc2c3n(c(=NC(=O)c4cnc(N)nc4)nc12)CCN3 showed an IC50 (second compound 0.00316 µM) of over 10 µM, an IC50 (second compound 0.01 µM) of over 10 µM and an IC50 (second compound 0.0316 µM) of over 10 µM. For the same compound, the IC50 (second compound 0.1 µM) was over 10 µM, the IC50 (second compound 0.316 µM) was over 10 µM and the IC50 (second compound 1 µM) was over 10 µM. It also gave a viability, T/C [1] of 117%, a viability, T/C [2] of 85% and a viability, T/C [3] of 81.3%. The viability, T/C [4] was 89.2%, the viability, T/C [5] was 78.7% and the viability, T/C [6] was 75.2%. The viability, T/C [7] was 97.2%, the viability, T/C [8] was 96.4% and the viability, T/C [9] was 85.7%. It also gave a viability, T/C [10] of 77.4%, a viability, T/C [11] of 87.4% and a viability, T/C [12] of 79.8%. The viability, T/C [13] was 91.6%, the viability, T/C [14] was 84.5% and the viability, T/C [15] was 73.6%. It also gave a viability, T/C [16] of 89.7%, a viability, T/C [17] of 70.5% and a viability, T/C [18] of 78.3%. For the same compound, the viability, T/C [19] was 76%, the viability, T/C [20] was 75.5% and the viability, T/C [21] was 68.7%. For the same compound, the viability, T/C [22] was 63.2%, the viability, T/C [23] was 77.4% and the viability, T/C [24] was 64.7%. It also gave a viability, T/C [25] of 60.1%, a viability, T/C [26] of 66% and a viability, T/C [27] of 62.1%. For the same compound, the viability, T/C [28] was 67.3%, the viability, T/C [29] was 62.3% and the viability, T/C [30] was 66.3%. For the same compound, the viability, T/C [31] was 58.6%, the viability, T/C [32] was 54.3% and the viability, T/C [33] was 62.4%. The viability, T/C [34] was 61.7%, the viability, T/C [35] was 65% and the viability, T/C [36] was 56.5%.
